Measurements published in patent US11370774B2, “Substituted benzofuran, benzopyrrole, benzothiophene, and structurally related complement inhibitors” (BioCryst Pharmaceuticals, Inc., priority 2018, dated 2022).

molecular target: Factor D (Homo sapiens (Human), UniProt P00746); assay: Factor D esterolytic assay (Z-Lys-SBzl substrate, DTNB, 405 nm); format: biochemical; conditions: Z-Lys-SBzl 1.29 mM, pH 7.5, 10% DMSO, tested a minimum of three times, read-out: Measured Ki (IC50) Value for Compounds: IC50
Sequence (P00746 26-253): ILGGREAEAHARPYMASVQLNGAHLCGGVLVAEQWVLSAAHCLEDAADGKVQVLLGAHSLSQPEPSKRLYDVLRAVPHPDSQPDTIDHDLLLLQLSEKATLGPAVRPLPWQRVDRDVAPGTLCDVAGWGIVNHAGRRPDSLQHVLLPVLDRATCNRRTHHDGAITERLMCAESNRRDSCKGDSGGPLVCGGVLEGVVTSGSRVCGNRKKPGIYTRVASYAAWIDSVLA
Method in brief: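 Human Factor D ([…]) with 1.29 mM Z-Lys-SBzl in 100 mM HEPES, 500 mM NaCl, pH 7.5, 10% DMSO; substrate added immediately or after room-temperature preincubation. Released thiol reacted with DTNB, rate followed at 405 nm for 600 sec, 690 nm background subtracted. IC50 from percent inhibition versus uninhibited rate, n≥3.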

`COc1ccc(CC(=O)O)c(OCc2cc(-c3ccnc(CN)c3F)c3occc3c2)c1` [Compound 464d, 2-(2-((7-(2-(aminomethyl)-3-fluoropyridin-4-yl)benzofuran-5-yl)methoxy)-4-methoxyphenyl)acetic acid] and `NCc1ccc(CC(=O)O)c(OCc2cc(-c3ccnc(CN)c3F)c3occc3c2)c1` [Compound 405e, 2-(4-(aminomethyl)-2-((7-(2-(aminomethyl)-3-fluoropyridin-4-yl)benzofuran-5-yl)methoxy)phenyl)acetic acid] cannot be ordered by IC50: < 1000 nM for the first, < 1000 nM for the second.

`CNC(=O)c1cc2cc(COc3ccccc3CC(=O)O)cc(-c3cccc(CN)c3)c2o1` [Compound 289d, 2-(2-((7-(3-(aminomethyl)phenyl)-2-(methylcarbamoyl)benzofuran-5-yl)methoxy)phenyl)acetic acid] and `NCc1cccc(-c2cc(COc3cc(F)ccc3CC(=O)O)cc3cc(F)oc23)c1` [Compound 520c, 2-(2-((7-(3-(aminomethyl)phenyl)-2-fluorobenzofuran-5-yl)methoxy)-4-fluorophenyl)acetic acid] cannot be ordered by IC50: < 1000 nM for the first, < 1000 nM for the second.

`CC(=O)Nc1ccc(OCc2cc(-c3cccc(CN)c3)c3occc3c2)c(CC(=O)O)c1` [Compound 360c, 2-(5-acetamido-2-((7-(3-(aminomethyl)phenyl)benzofuran-5-yl)methoxy)phenyl)acetic acid] and `Cc1ccc(CC(=O)O)c(OCc2cc(-c3cccc(CN)c3)c3occc3c2)c1` [Compound 202c, 2-(2-((7-(3-(aminomethyl)phenyl)benzofuran-5-yl)methoxy)-4-methylphenyl)acetic acid] cannot be ordered by IC50: < 1000 nM for the first, < 1000 nM for the second.

`Cc1ccc(CC(=O)O)c(OCc2cc(-c3cccc(CN)c3)c3ccn(C(C)C)c3c2)c1` [Compound 352c, 2-(2-((4-(3-(aminomethyl)phenyl)-1-isopropyl-1H-indol-6-yl)methoxy)-4-methylphenyl)acetic acid] and `CC(C)n1ccc2c(-c3cccc(CN)c3)cc(COc3ccc(F)cc3CC(=O)O)cc21` [Compound 474c, 2-(2-((4-(3-(aminomethyl)phenyl)-1-isopropyl-1H-indol-6-yl)methoxy)-5-fluorophenyl)acetic acid] cannot be ordered by IC50: < 1000 nM for the first, < 1000 nM for the second.

`NCc1cccc(-c2cc(COc3cc(C(N)=O)ccc3CC(=O)O)cc3ccoc23)c1` [Compound 238c, 2-(2-((7-(3-(aminomethyl)phenyl)benzofuran-5-yl)methoxy)-4-carbamoylphenyl)acetic acid] and `NCc1cccc(-c2cc(COc3cc4ccccc4cc3CC(=O)O)cc3ccoc23)c1` [Compound 401e, 2-(3-((7-(3-(aminomethyl)phenyl)benzofuran-5-yl)methoxy)naphthalen-2-yl)acetic acid] cannot be ordered by IC50: < 1000 nM for the first, < 1000 nM for the second.

`NCc1nccc(-c2cc(COc3ccccc3CC(=O)O)cc3c(C(F)(F)F)coc23)c1F` [Compound 181d, 2-(2-((7-(2-(aminomethyl)-3-fluoropyridin-4-yl)-3-(trifluoromethyl)benzofuran-5-yl)methoxy)phenyl)acetic acid] and `NCc1cccc(-c2cc(COc3ccccc3CC(=O)O)cc3c(C(F)(F)F)coc23)c1` [Compound 154g, 2-(2-((7-(3-(aminomethyl)phenyl)-3-(trifluoromethyl)benzofuran-5-yl)methoxy)phenyl)acetic acid] cannot be ordered by IC50: < 1000 nM for the first, < 1000 nM for the second.

`NCc1cc(-c2cc(COc3ccccc3CC(=O)O)nc3ccoc23)ccn1` [Compound 168c, 2-(2-((7-(2-(aminomethyl)pyridin-4-yl)furo[3,2-b]pyridin-5-yl)methoxy)phenyl)acetic acid] and `NCc1cc(-c2cc(COc3ccccc3CC(=O)O)cc3ccoc23)ccc1F` [Compound 60c, 2-(2-((7-(3-(aminomethyl)-4-fluorophenyl)benzofuran-5-yl)methoxy)phenyl)acetic acid] cannot be ordered by IC50: < 1000 nM for the first, < 1000 nM for the second.

`C[C@H](N)c1cccc(-c2cc(COc3ccccc3CC(=O)O)cc3ccoc23)c1F` [Compound 66c, (S)-2-(2-((7-(3-(1-aminoethyl)-2-fluorophenyl)benzofuran-5-yl)methoxy)phenyl)acetic acid] and `NCc1cccc(-c2cc(COc3ccccc3CC(=O)O)cc3ccoc23)c1O` [Compound 248c, 2-(2-((7-(3-(aminomethyl)-2-hydroxyphenyl)benzofuran-5-yl)methoxy)phenyl)acetic acid] cannot be ordered by IC50: < 1000 nM for the first, < 1000 nM for the second.

Compared with `NCc1cccc(-c2nc(C(=O)Nc3ccccc3CC(=O)O)cc3ccncc23)c1` [Compound 35f, 2-(2-(1-(3-(aminomethyl)phenyl)-2,7-naphthyridine-3-carboxamido)phenyl)acetic acid], `NCc1cccc(-c2cc(C(=O)Nc3ccccc3CC(=O)O)cc3nn(CC4CC4)cc23)c1` [Compound 11b, 2-(2-(4-(3-(aminomethyl)phenyl)-2-(cyclopropylmethyl)-2H-indazole-6-carboxamido)phenyl)acetic acid] is lower in IC50: 1000 to 10000 nM for the first, < 1000 nM for the second.

Compared with `NCc1cc(F)cc(-c2cc(COc3ccccc3CC(=O)O)cc3ccoc23)c1F` [Compound 256c, 2-(2-((7-(3-(aminomethyl)-2,5-difluorophenyl)benzofuran-5-yl)methoxy)phenyl)acetic acid], `Nc1n[nH]c2c(-c3cc(COc4ccccc4CC(=O)O)cc4ccoc34)cccc12` [Compound 176c, 2-(2-((7-(3-amino-1H-indazol-7-yl)benzofuran-5-yl)methoxy)phenyl)acetic acid] is higher in IC50: < 1000 nM for the first, 1000 to 10000 nM for the second.

Compared with `Cc1ccc(CC(=O)O)c(NC(=O)c2nc(-c3cccc(CN)c3F)nn3cccc23)c1` [Compound 51c, 2-(2-(2-(3-(aminomethyl)-2-fluorophenyl)pyrrolo[2,1-f][1,2,4]triazine-4-carboxamido)-4-methylphenyl)acetic acid], `C[C@H](N)c1cccc(-c2nc(C(=O)Nc3ccccc3CC(=O)O)c3cccn3n2)c1` [Compound 29d, (S)-2-(2-(2-(3-(1-aminoethyl)phenyl)pyrrolo[2,1-f][1,2,4]triazine-4-carboxamido)phenyl)acetic acid] is higher in IC50: < 1000 nM for the first, 1000 to 10000 nM for the second.

`COCc1cc2cc(COc3cc(CN)ccc3CC(=O)O)cc(-c3cccc(CN)c3)c2o1` [Compound 445c, 2-(4-(aminomethyl)-2-((7-(3-(aminomethyl)phenyl)-2-(methoxymethyl)benzofuran-5-yl)methoxy)phenyl)acetic acid] and `Cc1cc2cc(COc3cc(C#N)ccc3CC(=O)O)cc(-c3cccc(CN)c3)c2o1` [Compound 419c, 2-(2-((7-(3-(aminomethyl)phenyl)-2-methylbenzofuran-5-yl)methoxy)-4-cyanophenyl)acetic acid] cannot be ordered by IC50: < 1000 nM for the first, < 1000 nM for the second.

`NCc1cccc(-c2cc(COc3c(CC(=O)O)ccc4ccccc34)cc3ccoc23)c1` [Compound 399d, 2-(1-((7-(3-(aminomethyl)phenyl)benzofuran-5-yl)methoxy)naphthalen-2-yl)acetic acid] and `Cc1cc(CC(=O)O)c(OCc2cc(-c3cccc(CN)c3)c3occc3c2)c2c1CCC2` [Compound 286g, 2-(4-((7-(3-(aminomethyl)phenyl)benzofuran-5-yl)methoxy)-7-methyl-2,3-dihydro-1H-inden-5-yl)acetic acid] cannot be ordered by IC50: < 1000 nM for the first, < 1000 nM for the second.

`NCc1cccc(-c2cc(COc3ccccc3CC(=O)O)cc3[nH]ccc23)c1` [Compound 70a, 2-(2-((4-(3-(aminomethyl)phenyl)-1H-indol-6-yl)methoxy)phenyl)acetic acid] and `COCc1cc2cc(COc3ccc(F)cc3CC(=O)O)cc(-c3ccnc(CN)c3F)c2o1` [Compound 528d] cannot be ordered by IC50: < 1000 nM for the first, < 1000 nM for the second.
